The values below are quoted from earlier work in publication PMC7533793 (Cancer, 2009).

Each structure is given as a SMILES string. Like-named read-outs stand apart in the source and are kept apart here.

The data set has as its system in-transit extremity melanoma. As to conditions: for CR rate, isolated limb infusion: Sydney Melanoma Unit study.
[1] abbreviates: previously published experience of the authors, without ADH-1.

For the molecule `N[C@@H](Cc1ccc(N(CCCl)CCCl)cc1)C(=O)O` [melphalan, L-phenylalanine mustard], the “CR rate, isolated limb infusion” value (n = 60, M. D. Anderson stage IIIab (AJCC stage IIIC)) is recorded as 33%. Also, the “CR rate, isolated limb infusion” value (n = 74, M. D. Anderson stage IIIa (AJCC stage IIIB)) was 43%. Under setting [1], the “CR rate, isolated limb infusion with LPAM” value was 30%; the “PD rate, isolated limb infusion with LPAM” value is reported as 48%; the “PR rate, isolated limb infusion with LPAM” value was 7%.
